Measured values taken from ChEMBL document CHEMBL4145553, “Design, synthesis, and biological evaluation of novel amide and hydrazide based thioether analogs targeting Histone deacteylase (HDAC) enzymes” (Eur J Med Chem, 2018).
Calls of active or inactive are those of the source. The calls are words filed in the database; no cut-off is given here.

Key:
CAKI-1 [1] = assay: Growth inhibition of human Caki1 cells assessed as cell growth at 10^-6 M incubated for 48 hrs by sulforhodamine B assay relative to control; assay type: functional; details: CAKI-1, 48 h, read-out: Activity
Malme-3M [2] = assay: Growth inhibition of human MALME-3M cells assessed as cell growth at 10^-7 M incubated for 48 hrs by sulforhodamine B assay relative to control; assay type: functional; details: read-out: Activity
786-0 = assay: Growth inhibition of human 786-0 cells assessed as cell growth at 10^-5 M incubated for 48 hrs by sulforhodamine B assay relative to control; assay type: functional; details: 786-0, 48 h, read-out: Activity
NCI-H226 = assay: Growth inhibition of human NCI-H226 cells incubated for 48 hrs by sulforhodamine B assay; assay type: functional; details: NCI-H226, 48 h
SR [3] = assay: Growth inhibition of human SR cells assessed as cell growth at 10^-4 M incubated for 48 hrs by sulforhodamine B assay relative to control; assay type: functional; details: read-out: Activity
HT-29 = assay: Growth inhibition of human HT-29 cells assessed as cell growth at 10^-7 M incubated for 48 hrs by sulforhodamine B assay relative to control; assay type: functional; details: HT-29, 48 h, read-out: Activity
MDA-MB-435 [4] = assay: Induction of apoptosis in human MDA-MB-435 cells assessed as late apoptotic cells by propidium iodide/Annexin V staining based flow cytometry (reference value: 0.22%); assay type: functional
CAKI-1 [5] = assay: Growth inhibition of human Caki1 cells incubated for 48 hrs by sulforhodamine B assay; assay type: functional; details: CAKI-1, 48 h
HL-60 [6] = assay: Induction of apoptosis in human HL60 cells assessed as increase in caspase-3 expression by qRT-PCR method; assay type: functional, cell-based
LOX IMVI = assay: Growth inhibition of human LOXIMVI cells assessed as cell growth at 10^-7 M incubated for 48 hrs by sulforhodamine B assay relative to control; assay type: functional; details: read-out: Activity
OVCAR-5 = assay: Growth inhibition of human OVCAR5 cells incubated for 48 hrs by sulforhodamine B assay; assay type: functional; details: OVCAR-5, 48 h
RXF 393 = assay: Growth inhibition of human RXF393 cells incubated for 48 hrs by sulforhodamine B assay; assay type: functional; details: RXF 393, 48 h
SK-MEL-28 = assay: Growth inhibition of human SK-MEL-28 cells assessed as cell growth at 10^-4 M incubated for 48 hrs by sulforhodamine B assay relative to control; assay type: functional; details: SK-MEL-28, 48 h, read-out: Activity
SNB-75 = assay: Growth inhibition of human SNB75 cells incubated for 48 hrs by sulforhodamine B assay; assay type: functional; details: SNB-75, 48 h
SR [7] = assay: Growth inhibition of human SR cells assessed as cell growth at 10^-6 M incubated for 48 hrs by sulforhodamine B assay relative to control; assay type: functional; details: read-out: Activity
NCI-H23 = assay: Growth inhibition of human NCI-H23 cells assessed as cell growth at 10^-5 M incubated for 48 hrs by sulforhodamine B assay relative to control; assay type: functional; details: NCI-H23, 48 h, read-out: Activity
SF-539 = assay: Growth inhibition of human SF539 cells assessed as cell growth at 10^-4 M incubated for 48 hrs by sulforhodamine B assay relative to control; assay type: functional; details: SF-539, 48 h, read-out: Activity
HL-60 [8] = assay: Downregulation of HDAC1 mRNA expression in human HL60 cells by qRT-PCR method; assay type: functional, cell-based
TK-10 = assay: Growth inhibition of human TK10 cells assessed as cell growth at 10^-6 M incubated for 48 hrs by sulforhodamine B assay relative to control; assay type: functional; details: TK-10, 48 h, read-out: Activity
HL-60 [9] = assay: Downregulation of HDAC3 mRNA expression in human HL60 cells by qRT-PCR method; assay type: functional, cell-based
HL-60(TB) = assay: Growth inhibition of human HL-60(TB) cells assessed as cell growth at 10^-6 M incubated for 48 hrs by sulforhodamine B assay relative to control; assay type: functional; details: HL-60, 48 h, read-out: Activity
MDA-MB-435 [10] = assay: Antiproliferative activity against human MDA-MB-435 cells after 24 hrs by MTT assay; assay type: functional
SW-620 = assay: Growth inhibition of human SW620 cells incubated for 48 hrs by sulforhodamine B assay; assay type: functional; details: SW-620, 48 h
CAKI-1 [11] = assay: Growth inhibition of human Caki1 cells assessed as cell growth at 10^-8 M incubated for 48 hrs by sulforhodamine B assay relative to control; assay type: functional; details: CAKI-1, 48 h, read-out: Activity
HOP-62 = assay: Growth inhibition of human HOP62 cells assessed as cell growth at 10^-6 M incubated for 48 hrs by sulforhodamine B assay relative to control; assay type: functional; details: HOP-62, 48 h, read-out: Activity
OVCAR-3 = assay: Growth inhibition of human OVCAR3 cells assessed as cell growth at 10^-7 M incubated for 48 hrs by sulforhodamine B assay relative to control; assay type: functional; details: OVCAR-3, 48 h, read-out: Activity
COLO 205 = assay: Growth inhibition of human COLO205 cells assessed as cell growth at 10^-6 M incubated for 48 hrs by sulforhodamine B assay relative to control; assay type: functional; details: COLO 205, 48 h, read-out: Activity
K562 = assay: Growth inhibition of human K562 cells assessed as cell growth at 10^-4 M incubated for 48 hrs by sulforhodamine B assay relative to control; assay type: functional; details: K562, 48 h, read-out: Activity
KM12 = assay: Growth inhibition of human KM12 cells assessed as cell growth at 10^-7 M incubated for 48 hrs by sulforhodamine B assay relative to control; assay type: functional; details: KM12, 48 h, read-out: Activity
Malme-3M [12] = assay: Growth inhibition of human MALME-3M cells incubated for 48 hrs by sulforhodamine B assay; assay type: functional
[13] = read-out: LC50 (the source's name)
[14] = read-out: pLC50 (the source's name) (converted)

`CCS/C(Nc1ccccc1)=C(\C#N)C(=O)N/N=C\c1ccc(Cl)cc1Cl` showed a growth at 1 µM (CAKI-1 [1]) of 67%, a growth at 0.1 µM (Malme-3M [2]) of 89% and a growth at 10 µM (786-0) of 23%. For the same molecule, the GI50 (NCI-H226; read-out: GI50) was 4 µM, the CC50 (NCI-H226; [13]) was over 100 µM and the TGI (NCI-H226; read-out: TGI) was over 100 µM. It also gave a GI50 (NCI-H226; read-out: pGI50 (converted)) of 3.98 µM, a CC50 (NCI-H226; [14]) of over 100 µM and a TGI (NCI-H226; read-out: pTGI (converted)) of over 100 µM. For the same molecule, the growth at 100 µM (SR [3]) was 7%, the growth at 0.1 µM (HT-29) was 101% and the Activity (MDA-MB-435 [4]) was 3.47%. It also gave a GI50 (CAKI-1 [5]; read-out: GI50) of 2.39 µM, a CC50 (CAKI-1 [5]; [13]) of over 100 µM and a TGI (CAKI-1 [5]; read-out: TGI) of over 100 µM. For the same molecule, the GI50 (CAKI-1 [5]; read-out: pGI50 (converted)) was 2.4 µM, the CC50 (CAKI-1 [5]; [14]) was over 100 µM and the TGI (CAKI-1 [5]; read-out: pTGI) was over 100 µM. The Activity (HL-60 [6]) was “Active”, the growth at 0.1 µM (LOX IMVI) was 96% and the GI50 (OVCAR-5; read-out: GI50) was 8.25 µM. For the same molecule, the CC50 (OVCAR-5; [13]) was over 100 µM, the TGI (OVCAR-5; read-out: TGI) was over 100 µM and the GI50 (OVCAR-5; read-out: pGI50 (converted)) was 8.32 µM. The CC50 (OVCAR-5; [14]) was over 100 µM, the TGI (OVCAR-5; read-out: pTGI) was over 100 µM and the GI50 (RXF 393; read-out: GI50) was 2.06 µM. The CC50 (RXF 393; [13]) was over 100 µM, the TGI (RXF 393; read-out: TGI) was 8.65 µM and the GI50 (RXF 393; read-out: pGI50 (converted)) was 2.04 µM. It also gave a CC50 (RXF 393; [14]) of over 100 µM, a TGI (RXF 393; read-out: pTGI (converted)) of 8.71 µM and a growth at 100 µM (SK-MEL-28) of 45%. The GI50 (SNB-75; read-out: GI50) was 2.15 µM, the CC50 (SNB-75; [13]) was over 100 µM and the TGI (SNB-75; read-out: TGI) was 9.37 µM. It also gave a GI50 (SNB-75; read-out: pGI50 (converted)) of 2.14 µM, a CC50 (SNB-75; [14]) of over 100 µM and a TGI (SNB-75; read-out: pTGI (converted)) of 9.33 µM. The growth at 1 µM (SR [7]) was 76%, the growth at 10 µM (NCI-H23) was 41% and the growth at 100 µM (SF-539) was -6%. The Activity (HL-60 [8]) was “Active”, the growth at 1 µM (TK-10) was 97% and the Activity (HL-60 [9]) was “Active”. The growth at 1 µM (HL-60(TB)) was 93%, the Activity (MDA-MB-435 [10]) was “Dose-dependent effect” and the GI50 (MDA-MB-435 [10]; Homo sapiens, MDA-MB-435, 24 h) was 0.42 µM. The GI50 (SW-620; read-out: GI50) was 4.65 µM, the CC50 (SW-620; [13]) was over 100 µM and the TGI (SW-620; read-out: TGI) was over 100 µM. The GI50 (SW-620; read-out: pGI50 (converted)) was 4.68 µM, the CC50 (SW-620; [14]) was over 100 µM and the TGI (SW-620; read-out: pTGI) was over 100 µM. The growth at 0.01 µM (CAKI-1 [11]) was 94%, the growth at 1 µM (HOP-62) was 76% and the growth at 0.1 µM (OVCAR-3) was 97%. For the same molecule, the growth at 1 µM (COLO 205) was 99%, the growth at 100 µM (K562) was 7% and the growth at 0.1 µM (KM12) was 101%. The GI50 (Malme-3M [12]; read-out: GI50) was 9.3 µM, the CC50 (Malme-3M [12]; [13]) was over 100 µM and the TGI (Malme-3M [12]; read-out: TGI) was over 100 µM. For the same molecule, the GI50 (Malme-3M [12]; read-out: pGI50 (converted)) was 9.33 µM, the CC50 (Malme-3M [12]; [14]) was over 100 µM and the TGI (Malme-3M [12]; read-out: pTGI) was over 100 µM.
